From patent US7417175B2, “Interstitial prostatism model animal” (Taiho Pharmaceuticals Co., Ltd., priority 2001, dated 2008)

Legend:
[1] = tested on: rat fetal urogenital sinus-derived tissues implanted beneath the prostatic capsules; assay: Inhibition of weight increase of rat fetal urogenital sinus-derived tissue implanted beneath the prostatic capsule of rats (prostatic stromal hyperplasia model); format: in vivo, male SD rats
Text: Under ether anesthesia, fetuses were removed from female SD rats that were 20 days pregnant. From the removed fetuses, the urogenital sinuses were removed under ether anesthesia while observing through a stereoscopic microscope. The urogenital sinuses were stored in a sterilized culture medium until implantation. The prostate glands were exposed by midline incision using 6-week old male SD rats under ether anesthesia. The capsule of prostate right ventral lobe was slightly cut open while observing through a stereoscopic microscope. Two of the fetal urogenital sinuses obtained in (1) above were implanted using a forceps beneath the capsule, and the incision in the capsule was sutured. The cut abdominal skin then closed and the rats were reared for 2 to 8 weeks in normal rearing cages (Rat Bracket Cages, 3 to 4 rats/cage) under the following conditions: • Temperature: 20 to 26° C. • Humidity: 30 to 70% • Lighting hours: 12-hour light-dark cycle; light-on at 8 am and light-out at 8 pm • Feed and feeding method: solid feed for mouse, MF (irradiated), ad libitum • Water and watering method: tap water, ad libitum (3) Weighing of Implanted Tissue (Rat Fetal Urogenital Sinus-derived Tissue) Animal models for prostatic stromal hyperplasia of the present invention were prepared according to the methods described in Examples 2 (1) and (2) by implanting the urogenital sinuses of rat fetuses (20 days of intrauterine life) beneath the capsules of prostate ventral lobes of 6-week-old male SD rats. […] The rate inhibition to weight increase of the rat fetal urogenital sinus-derived tissues implanted beneath the prostatic capsules was calculated according to the formula shown in Equation 1 above, and the effects of the therapeutic agent on benign prostatic hyperplasia (chlormadinone acetate) were then evaluated. • Experiment (2): Animal models for prostatic stromal hyperplasia prepared as above were reared under the conditions described in Example 2 (2) for 3 weeks (until day 21) from the implantation day (day 0). […]

[2] = tested on: subcutaneously-implanted, rat fetal urogenital sinus-derived tissues; assay: Inhibition of weight increase of rat fetal urogenital sinus-derived tissue implanted subcutaneously in nude mice (prostatic stromal hyperplasia model); format: in vivo, male nude mice (BALB/cA Jcl-nu); conditions: for Rate of inhibition (%) to weight increase of implanted tissue: tissue weighed day 14, vs solvent group
Text: Under ether anesthesia, fetuses were removed from female SD rats that were 21 days pregnant. From the removed male fetuses, urogenital sinuses were removed also under ether anesthesia while observing through a stereoscopic microscope. The urogenital sinuses were stored in a sterilized culture medium until implantation. The abdominal skin adjacent the left femoral region of 6-week old BALB/c male nude mice was cut open about 2 to 3 mm under ether anesthesia. A single rat fetal urogenital sinus obtained in (1) above was subcutaneously implanted after incision using a forceps and the incision was sutured. Thereafter, these nude mice were reared in clean racks (Rat Bracket Cages, 3 to 4 mice/cage) for 2 weeks under the following conditions: • Temperature: 20 to 26° C. • Humidity: 30 to 70% • Lighting hours: 12-hour light-dark cycle; light-on at 8 am and light-out at 8 pm • Feed and feeding method: solid feed for mouse, MF (irradiated), ad libitum • Water and watering method: tap water, ad libitum (3) Weighing of Implanted Tissue (Rat Fetal Urogenital Sinus-derived Tissue) Animal models for prostatic stromal hyperplasia of the invention were prepared according to the methods described in Example 1 (1) and (2) by implanting the urogenital sinuses of rat fetuses (21 day-old) beneath the abdominal skin of 6-week-old male nude mice (BALB/cA Jcl-nu). For 2 weeks from the implantation day (day 0), a known therapeutic agent for benign prostatic hyperplasia, i.e., chlormadinone acetate (anti-androgen agent: 6-chloro-3,20-dioxopregna-4,6-dien-17,alpha-yl acetate; suspended or dissolved in 0.5% hydroxypropylmethyl cellulose (0.5% HPMC) solvent) was forcedly administered orally once a day (3 test substance-administered groups: 30 mg/kg·day, 100 mg/kg·day, 300 mg/kg·day; n=10 mice/group). Two weeks after the beginning of administration (day 14), the model animals were sacrificed by over anesthesia, and the implanted tissues (rat fetal urogenital sinus-derived tissues) were removed and weighed (weights from the test substance-administered groups). As a control experiment, for 2 weeks after implantation, model animals (solvent-administered group: n=10 mice) were forcedly administered with a solvent (0.5% HPMC), no chlormadinone acetate dissolved therein, once a day orally. […] The inhibition rate to weight increase of the subcutaneously-implanted, rat fetal urogenital sinus-derived tissues was calculated according to the formula shown in Equation 1, with respect to each chlormadinone acetate-administered group, and the effects of the therapeutic agent for benign prostatic hyperplasia (chlormadinone acetate) upon these tissues were then evaluated. […]

What does the source list for `CC(=O)O[C@]1(C(C)=O)CC[C@H]2[C@@H]3C=C(Cl)C4=CC(=O)CC[C@]4(C)[C@H]3CC[C@@]21C` [chlormadinone acetate, 6-chloro-3,20-dioxopregna-4,6-dien-17,alpha-yl acetate]?
Rate of inhibition (%) to weight increase of implanted tissue ([1]; Experiment (1): 10 mg/kg·day orally for 3 weeks from implantation date, tissue weighed day 21): 30.7%; Rate of inhibition (%) to weight increase of implanted tissue ([1]; Experiment (2): 10 mg/kg·day orally for 3 weeks from 3 weeks after implantation (day 21 to day 42), tissue weighed day 42): 67.0%; Effect on tissue weight increase (in words) ([1]; Experiments (1) and (2), 10 mg/kg·day oral, implant beneath prostatic capsule of rats): significantly inhibits the tissue weight increase; Rate of inhibition (%) to weight increase of implanted tissue ([2]; 30 mg/kg·day orally once a day for 2 weeks from implantation day): 21.8%; Rate of inhibition (%) to weight increase of implanted tissue ([2]; 100 mg/kg·day orally once a day for 2 weeks from implantation day): 39.5%; Rate of inhibition (%) to weight increase of implanted tissue ([2]; 300 mg/kg·day orally once a day for 2 weeks from implantation day): 38.8%; Effect on tissue weight increase (in words) ([2]; oral, 2 weeks of rearing after implantation, subcutaneous implant in nude mice): significantly inhibits the tissues weight increase
